In PubChem BioAssay (NCI):
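Method: 48-hour compound exposure of cells in 96-well plates, five concentrations, linear interpolation of endpoints. TGI: total growth inhibition.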

Columns and labels:
Test in all cases: DTP human tumour cell line panel, 48 h
TK-10 renal = test system: TK-10 renal
SNB-75 CNS = test system: SNB-75 CNS
UACC-62 melanoma = test system: UACC-62 melanoma
EKVX NSCLC = test system: EKVX NSCLC
MALME-3M melanoma = test system: MALME-3M melanoma
CAKI-1 renal = test system: CAKI-1 renal
HL-60(TB) leukemia = test system: HL-60(TB) leukemia
NCI-H226 lung = test system: NCI-H226 lung
DU-145 prostate = test system: DU-145 prostate
SK-OV-3 ovarian = test system: SK-OV-3 ovarian

With `O=NN1CCCS1(=O)=O` the TGI (TK-10 renal) was over 100 µM, the TGI (SNB-75 CNS) was over 100 µM and the TGI (UACC-62 melanoma) was over 100 µM. The TGI (EKVX NSCLC) was over 100 µM, the TGI (MALME-3M melanoma) was over 100 µM and the TGI (CAKI-1 renal) was over 100 µM. It also gave a TGI (HL-60(TB) leukemia) of over 100 µM, a TGI (NCI-H226 lung) of over 100 µM and a TGI (DU-145 prostate) of over 100 µM. For the same compound, the TGI (SK-OV-3 ovarian) was over 100 µM.

`COc1cc(C)cc2c(-c3c(O)cc(O)c4c3C[C@H](C)N[C@H]4C)cc(-c3cc(-c4c(O)cc(O)c5c4C[C@H](C)N[C@H]5C)c4cc(C)cc(OC)c4c3O)c(O)c12` gave a TGI (TK-10 renal) of over 100 µM, a TGI (SNB-75 CNS) of over 100 µM and a TGI (UACC-62 melanoma) of over 100 µM. It also gave a TGI (EKVX NSCLC) of over 100 µM, a TGI (MALME-3M melanoma) of over 100 µM and a TGI (CAKI-1 renal) of over 100 µM. The TGI (HL-60(TB) leukemia) was over 100 µM, the TGI (NCI-H226 lung) was over 100 µM and the TGI (DU-145 prostate) was over 100 µM. For the same compound, the TGI (SK-OV-3 ovarian) was over 100 µM.

For `NC1c2c(Cl)sc(Cl)c2C(=O)C1O` (configuration not stated), the TGI (TK-10 renal) was over 100 µM, the TGI (SNB-75 CNS) was over 100 µM and the TGI (UACC-62 melanoma) was 43.7 µM. For the same compound, the TGI (EKVX NSCLC) was 57.6 µM, the TGI (MALME-3M melanoma) was 82.4 µM and the TGI (CAKI-1 renal) was 47.4 µM. It also gave a TGI (HL-60(TB) leukemia) of 30.1 µM, a TGI (NCI-H226 lung) of over 100 µM and a TGI (DU-145 prostate) of over 100 µM. It also gave a TGI (SK-OV-3 ovarian) of over 100 µM.

Work on `COC(=O)c1cc(C)ccc1/C=C1\Cc2c(C)cc(C)cc2C1=O` yielded a TGI (TK-10 renal) of 40 µM, a TGI (SNB-75 CNS) of 35.5 µM and a TGI (UACC-62 melanoma) of 65.1 µM. The TGI (EKVX NSCLC) was over 88.4 µM, the TGI (MALME-3M melanoma) was over 100 µM and the TGI (CAKI-1 renal) was over 89.1 µM. The TGI (HL-60(TB) leukemia) was over 100 µM, the TGI (NCI-H226 lung) was over 82.7 µM and the TGI (DU-145 prostate) was over 100 µM.

For `CCN(CC)C1Oc2cc3c(cc2C(c2cc(OC)c(OC)c(OC)c2)C1C)OCO3` (configuration not stated), the TGI (TK-10 renal) was over 72.1 µM, the TGI (SNB-75 CNS) was over 69.9 µM and the TGI (UACC-62 melanoma) was 98.5 µM. It also gave a TGI (EKVX NSCLC) of over 75.5 µM, a TGI (MALME-3M melanoma) of over 64 µM and a TGI (CAKI-1 renal) of over 44.2 µM. The TGI (HL-60(TB) leukemia) was 0.932 µM, the TGI (NCI-H226 lung) was 4.54 µM and the TGI (DU-145 prostate) was over 91.4 µM. For the same compound, the TGI (SK-OV-3 ovarian) was over 61.7 µM.

With `C=CC(OC(C)=O)c1ccc(OC(C)=O)cc1` (configuration not stated) the TGI (TK-10 renal) was 4.99 µM, the TGI (SNB-75 CNS) was 31.5 µM and the TGI (UACC-62 melanoma) was 28.1 µM. The TGI (EKVX NSCLC) was 41.4 µM, the TGI (MALME-3M melanoma) was 11.2 µM and the TGI (CAKI-1 renal) was 10 µM. The TGI (HL-60(TB) leukemia) was 18.6 µM, the TGI (NCI-H226 lung) was 32.1 µM and the TGI (DU-145 prostate) was 27.1 µM. It also gave a TGI (SK-OV-3 ovarian) of 32.6 µM.

With `Cc1c(C#N)c(=N)oc2ccccc12` the TGI (TK-10 renal) was over 100 µM, the TGI (SNB-75 CNS) was over 100 µM and the TGI (UACC-62 melanoma) was over 100 µM. The TGI (EKVX NSCLC) was over 100 µM, the TGI (MALME-3M melanoma) was over 100 µM and the TGI (CAKI-1 renal) was over 100 µM. For the same compound, the TGI (HL-60(TB) leukemia) was over 100 µM, the TGI (NCI-H226 lung) was over 100 µM and the TGI (DU-145 prostate) was over 100 µM. It also gave a TGI (SK-OV-3 ovarian) of over 100 µM.

For `COc1ccc(OC)c(C[P+](c2ccccc2)(c2ccccc2)c2ccccc2)c1`, the TGI (TK-10 renal) was over 92.6 µM, the TGI (SNB-75 CNS) was 22.2 µM and the TGI (UACC-62 melanoma) was 12.8 µM. For the same compound, the TGI (EKVX NSCLC) was over 94.6 µM, the TGI (MALME-3M melanoma) was 23.3 µM and the TGI (CAKI-1 renal) was 56 µM. It also gave a TGI (HL-60(TB) leukemia) of 3.29 µM, a TGI (NCI-H226 lung) of over 61.4 µM and a TGI (DU-145 prostate) of over 79.4 µM. It also gave a TGI (SK-OV-3 ovarian) of 11 µM.

Compound `CC1CN=C(c2ccc(-c3nc(-c4ccc(C5=NCC(C)N5)cc4)nc(N(C)C)n3)cc2)N1` (configuration not stated) has a TGI (TK-10 renal) of 11.5 µM, a TGI (SNB-75 CNS) of 4.29 µM and a TGI (UACC-62 melanoma) of 3.41 µM. The TGI (EKVX NSCLC) was 8.67 µM, the TGI (MALME-3M melanoma) was 8.87 µM and the TGI (CAKI-1 renal) was 32 µM. It also gave a TGI (HL-60(TB) leukemia) of 6.88 µM, a TGI (NCI-H226 lung) of 5.35 µM and a TGI (DU-145 prostate) of 5.59 µM. The TGI (SK-OV-3 ovarian) was 5.54 µM.

`NC(=S)NNC(=S)NC(=O)c1ccco1` was tested, and the TGI (SNB-75 CNS) was over 10 µM, the TGI (UACC-62 melanoma) was over 10 µM and the TGI (EKVX NSCLC) was over 10 µM. The TGI (MALME-3M melanoma) was over 10 µM, the TGI (CAKI-1 renal) was over 10 µM and the TGI (HL-60(TB) leukemia) was over 10 µM. The TGI (NCI-H226 lung) was over 10 µM, the TGI (DU-145 prostate) was over 10 µM and the TGI (SK-OV-3 ovarian) was over 10 µM.

In the case of `COc1cc2c(cc1O)CCN(C)[C@H]2Cc1ccc(Oc2c(O)c(OC)cc3c2C[C@H]2c4c(c(OC)c(OC)c(OC)c4-3)CCN2C)cc1`, the TGI (TK-10 renal) is reported as 11.3 µM, the TGI (SNB-75 CNS) is reported as 9.61 µM and the TGI (UACC-62 melanoma) is reported as 9.44 µM. The TGI (EKVX NSCLC) was 11.3 µM, the TGI (MALME-3M melanoma) was 13.6 µM and the TGI (CAKI-1 renal) was 10.9 µM. For the same compound, the TGI (HL-60(TB) leukemia) was 10.6 µM, the TGI (NCI-H226 lung) was 13.6 µM and the TGI (DU-145 prostate) was 11.5 µM. It also gave a TGI (SK-OV-3 ovarian) of 10.5 µM.

Compound `CC1=NN2C(=N)/C(=C/c3ccccc3)C(=O)N=C2S1` has a TGI (TK-10 renal) of over 100 µM, a TGI (SNB-75 CNS) of over 100 µM and a TGI (UACC-62 melanoma) of over 100 µM. For the same compound, the TGI (EKVX NSCLC) was over 100 µM, the TGI (MALME-3M melanoma) was over 100 µM and the TGI (CAKI-1 renal) was over 100 µM. The TGI (HL-60(TB) leukemia) was over 100 µM, the TGI (NCI-H226 lung) was over 100 µM and the TGI (DU-145 prostate) was over 100 µM. The TGI (SK-OV-3 ovarian) was over 100 µM.

`COc1ccc2c(c1)C(=O)C1CCC(=O)N1C2c1ccc2c(c1)OCO2` (configuration not stated) was tested, and the TGI (TK-10 renal) was 86.1 µM, the TGI (SNB-75 CNS) was 36.5 µM and the TGI (UACC-62 melanoma) was 29.9 µM. The TGI (EKVX NSCLC) was 40.2 µM, the TGI (MALME-3M melanoma) was 15.9 µM and the TGI (CAKI-1 renal) was 71.8 µM. The TGI (HL-60(TB) leukemia) was 42.4 µM, the TGI (NCI-H226 lung) was 30.3 µM and the TGI (DU-145 prostate) was 33.4 µM. The TGI (SK-OV-3 ovarian) was 63.1 µM.

With `CC1CN=C(c2ccc(CN3CCC(C4CCN(Cc5ccc(C6=NCC(C)N6)cc5)CC4)CC3)cc2)N1` (configuration not stated) the TGI (TK-10 renal) was 57.5 µM, the TGI (SNB-75 CNS) was 31.1 µM and the TGI (UACC-62 melanoma) was 41.7 µM. The TGI (EKVX NSCLC) was 47.2 µM, the TGI (MALME-3M melanoma) was 63 µM and the TGI (CAKI-1 renal) was over 100 µM. It also gave a TGI (HL-60(TB) leukemia) of over 100 µM, a TGI (DU-145 prostate) of 30.6 µM and a TGI (SK-OV-3 ovarian) of 53.9 µM.

With `O=[N+]([O-])c1ccc2c(c1)n1c(N3CCCC3)[n+]3ccccc3c1c1c3cccc[n+]3c(N3CCCC3)n21` the TGI (TK-10 renal) was over 100 µM, the TGI (SNB-75 CNS) was over 100 µM and the TGI (UACC-62 melanoma) was over 100 µM. The TGI (EKVX NSCLC) was over 100 µM, the TGI (MALME-3M melanoma) was over 100 µM and the TGI (CAKI-1 renal) was over 100 µM. It also gave a TGI (HL-60(TB) leukemia) of 94.1 µM, a TGI (NCI-H226 lung) of over 100 µM and a TGI (DU-145 prostate) of over 100 µM.

Work on `COc1cccc(NC(=O)CC(=O)N2N=C(C)C(N=Nc3ccc(C(=O)O)cc3)C2=O)c1` (configuration not stated) yielded a TGI (TK-10 renal) of over 100 µM, a TGI (SNB-75 CNS) of 45.1 µM and a TGI (UACC-62 melanoma) of over 100 µM. It also gave a TGI (EKVX NSCLC) of over 100 µM, a TGI (MALME-3M melanoma) of over 100 µM and a TGI (CAKI-1 renal) of over 100 µM. For the same compound, the TGI (HL-60(TB) leukemia) was over 100 µM and the TGI (DU-145 prostate) was over 100 µM.

With `COc1cc(CNC(=S)CCCCCCCCCCC(C)C)ccc1O` the TGI (TK-10 renal) was over 100 µM, the TGI (SNB-75 CNS) was over 100 µM and the TGI (UACC-62 melanoma) was over 100 µM. For the same compound, the TGI (EKVX NSCLC) was over 100 µM, the TGI (MALME-3M melanoma) was over 100 µM and the TGI (HL-60(TB) leukemia) was 70.2 µM. It also gave a TGI (NCI-H226 lung) of 86.3 µM, a TGI (DU-145 prostate) of over 100 µM and a TGI (SK-OV-3 ovarian) of over 100 µM.

With `Cc1nc(Nc2nc3ccccc3[nH]2)nc(Cl)c1CCCl` the TGI (TK-10 renal) was over 100 µM, the TGI (SNB-75 CNS) was over 100 µM and the TGI (UACC-62 melanoma) was over 100 µM. It also gave a TGI (EKVX NSCLC) of over 100 µM, a TGI (MALME-3M melanoma) of over 100 µM and a TGI (CAKI-1 renal) of over 100 µM. It also gave a TGI (HL-60(TB) leukemia) of over 100 µM, a TGI (NCI-H226 lung) of over 100 µM and a TGI (DU-145 prostate) of over 100 µM.
